Measured values published in publication doi:10.1101/2021.07.01.450682v1 (biorxiv, 2021).

T1: PfLPL3 (lysophospholipase 3; recombinant hydrolase domain) (Plasmodium falciparum, UniProt Q8IK68)
T1 sequence (Q8IK68 41-338): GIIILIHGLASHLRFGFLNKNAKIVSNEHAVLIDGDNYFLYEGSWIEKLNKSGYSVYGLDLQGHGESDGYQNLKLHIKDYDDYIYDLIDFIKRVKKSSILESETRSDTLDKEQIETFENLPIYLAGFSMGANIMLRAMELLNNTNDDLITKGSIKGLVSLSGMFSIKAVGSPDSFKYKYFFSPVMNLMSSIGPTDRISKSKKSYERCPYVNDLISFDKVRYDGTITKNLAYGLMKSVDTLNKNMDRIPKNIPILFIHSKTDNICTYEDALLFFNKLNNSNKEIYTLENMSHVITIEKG

B1: PfLPL3 (lysophospholipase 3; recombinant hydrolase domain) (Plasmodium falciparum 3D7) (protein)
chain: T1 sequence (Q8IK68 41-338)

Tests used:
[1] = biological target: T1, PfLPL3 (lysophospholipase 3; recombinant hydrolase domain); assay: coupled fluorescent lysophospholipase assay; format: biochemical; conditions: 16:0 LPC substrate; 50 mM Tris pH 8.0, 5 mM CaCl2; 20 μg enzyme in 200 μl
purified protein = substrate: CCCCCCCCCCCCCCCC(=O)OC[C@@H](O)COP(=O)([O-])OCC[N+](C)(C)C; assay: purified protein; conditions: 50 mM Tris pH 8.0, 5 mM CaCl2, 20 μg enzyme

Molecule | IC50 [1] | Km (purified protein)
O=C(CCc1ccccc1)c1ccccc1OCC(O)CN1CCCCC1 (stereo not drawn) [PCB6, MMV009015] | 1260 nM | 
CCOc1cc(Br)c(C(C)NC(=O)c2cccc(OC)c2)cc1OCC (stereo not drawn) [PCB7, MMV665796] | 920 nM | 
B1 |  | 49.25 µM
